Patent publication US4366159A (priority 1981, dated 1982)
Where a name gives a salt, the structure may show the parent alone. Read-outs that look alike come from different tables or passages of the source.

Legend:
[1] = anesthetic requirement (MAC) for cyclopropane, tail-clamp technique; type: in vivo, Sprague-Dawley rats
Method: (§1) The effect on anesthetic requirements and PaCO2 of combined doses of nalbuphine hydrochloride and morphine sulfate was evaluated in 18 Sprague-Dawley rats (200-350 gms). Anesthetic requirements for cyclopropane anesthetic of each rat was determined using a tail-clamp technique (Munson et al., The Effect of Acute Hypothyroidism and Hyperthyoidism on Cyclopropane Requirements (MAC) in Rats, Anesthesiology 1968; 29:1094-1098). After induction of anesthesia with cyclopropane, the femoral artery and vein were exposed and catheterized with PE50 tubing. Anesthetic requirement as measured by minimal alveolar concentration (MAC) was determined and thereafter nalbuphine hydrochloride was administered intravenously. Upon completion of control measurements, a bolus dose of 0.04 mg/kg of nalbuphine hydrochloride was followed with a constant infusion of 0.1 mg/kg/min. After 45 minutes of continuous infusion, MAC was redetermined and arterial blood sampling repeated. The rat then received either 2, 4 or 8 mg/kg subcutaneously of morphine sulfate and after 30 minutes MAC and arterial blood gas (ABG) values (PaO2, PaCO2, pH, HCO3) redetermined.
The effect of morphine sulfate alone on anesthetic requirement and respiration was evaluated in a separate group of five Sprague-Dawley rats. After baseline measurements of anesthetic requirement (MAC) and ABG values, 2 mg/kg of morphine sulfate was given subcutaneously and after 30 minutes, repeat measurements of anesthetic requirements and blood gases were carried out.
Statistical evaluation was carried out using analysis of variance comparing the groups of animals at different infusion rates of nalbuphine hydrochloride, and for the animals receiving the combined morphine sulfatenalbuphine hydrochloride doses.

[2] = Method: as §1
The effect of morphine sulfate alone on anesthetic requirement and respiration was evaluated in a separate group of five Sprague-Dawley rats. […]

[3] = mouse antiphenylquinone writhing test; details: for % mice blocked: 0:1 (morphine SO4 only)
[4] = human, in vivo
Method: The nalbuphine was administered parenterally as each patient was coming out of the anesthesia. […] The respiratory effect of the nalbuphine was established by measurement of arterial PaCO2 using a blood gas analyzer well known in respiratory therapy. Normal PaCO2 is in the range of 35-42 mmHg. All arterial samples were obtained on an inspired oxygen concentration of 100%.

[5] = from a previous study, cited from earlier work

SMILES | MAC Reduction % (Mean ± SEM) ([1]; rat, in vivo) [%] | PaCO2 (Mean ± SEM) ([2]; rat, in vivo) [mmHg] | ED50 at 10 min., Nalbuphine HCl ([3]; mouse, in vivo, sc) [mg/kg] | duration of analgesia [4] [h] | emergence from anesthesia [4] | hypoxia and shunt [4] | pH after nalbuphine [4] | respiratory acidosis present before nalbuphine [4] | respiratory depression resulting from the narcotic [4] | MAC Reduction % (Mean ± SEM) ([1]; morphine SO4 2 mg/kg sc, 30 min) [%] | MAC Reduction % (Mean ± SEM) ([1]; morphine SO4 2 mg/kg sc, 30 min, listed as morphine) [%] | mean PaCO2 compared with comparable MAC reduction dose of nalbuphine ([2]; morphine 2 mg/kg) | % mice blocked ([3]; s.c., 10 min, 0.373 mg/kg) [%] | % mice blocked ([3]; s.c., 10 min, 0.745 mg/kg) [%] | % mice blocked ([3]; s.c., 10 min, 1.49 mg/kg) [%] | % mice blocked ([3]; s.c., 10 min, 2.98 mg/kg) [%] | ED50 at 10 min., Morphine SO4 ([3]; s.c., 10 min, morphine SO4 dose (alone or as component of combination), N = 30 mice/dose, 95% conf. limits printed on following lines) [mg/kg] | MAC Reduction % (Mean ± SEM) ([5]; morphine SO4 2 mg/kg sc) [%] | MAC Reduction % (Mean ± SEM) ([5]; morphine SO4 4 mg/kg sc) [%] | MAC Reduction % (Mean ± SEM) ([5]; morphine SO4 8 mg/kg sc) [%]
Oc1ccc2c3c1O[C@H]1[C@@H](O)CC[C@@]4(O)[C@@H](C2)N(CC2CCC2)CC[C@]314 [Nalbuphine HCl, (-)-17-(cyclobutylmethyl)-4,5α-epoxymorphinan-3,6α, 14-triol] | 21.62 ± 0.69 | 48.31 ± 1.07 | 2.17 | 8 to 12 | smooth, rapid | No patient was hypoxic, nor was there any significant shunt present | 7.35±0.6 | completely reversed | reversed in all cases | – | – | – | – | – | – | – | – | – | – | –
CN1CC[C@]23c4c5ccc(O)c4O[C@H]2[C@@H](O)C=C[C@H]3[C@H]1C5 [Morphine SO4] | – | – | – | – | – | – | – | – | – | 22 ± 0.55 | 22 | significantly higher | 17 | 37 | 83 | 100 | 0.832 | 21.80 ± 1.48 | 32.63 ± 0.98 | 54.87 ± 1.94
